Assay results from patent publication US7161064B2, “Method for producing stably transformed duckweed using microprojectile bombardment” (North Carolina State University, priority 1997, dated 2007).

Legend:
[1] = system: L. minor callus cultures, strain 8744 and strain 8627; test: Frond regeneration from L. minor callus cultures; assay type: cell-based, Lemna minor; conditions: 8 weeks
Experimental: The effect of medium composition on frond regeneration from L. minor callus cultures was also tested. Seven media formulations were tested: (1) water agar, (2) water agar with 100 μM adenine sulfate, (3) water agar with 10 μM BA, (4) water agar with 10 μM BA and 1 μM IBA, (5) half-strength SH, (6) half-strength SH with 10 μM BA, and (7) half-strength SH with 10 μM BA and 1 μM IBA. […] Callus was incubated on the seven different media for 8 weeks, with continual observation for the development of fronds.

[2] = system: L. minor strains 8744 and 8627; test: Callus induction from Lemna minor fronds, auxin and cytokinin type and concentration; assay type: cell-based; conditions: MS medium, 6 weeks
Experimental: In the auxin type and concentration experiment, four auxins: 2,4-D, NAA, IBA and dicamba were tested, each at four concentrations: 2, 5, 10 and 20 μM, for their ability to induce callus formation from L. minor strains 8744 and 8627. The basal medium used was MS and media and experimental protocol was basically that followed in Example 10. Fronds used in this experiment were grown for 2 weeks prior to plating on callus induction medium under 3 different culture conditions: 1) SH medium without plant growth regulators, 2) F medium with 24 μM 2,4-D and 2 μM 2-iP, and 3) SH medium with 24 μM 2,4-D and 2 μM 2-iP. Fronds were separated, the roots cut off and then plated on induction medium. The fronds were incubated under conditions given in Example 8 for 6 weeks at which time cultures were evaluated for the presence or absence of callus induction, the degree to which the callus proliferated, and the basic morphology of the callus present.
In the cytokinin type and concentration experiment, four cytokinins: BA, kinetin, 2-iP, and thidiazuron were tested, each at five concentrations: 0.05, 0.1, 0.5, 1 and 5 μM, for their ability to induce callus formation from L. minor strains 8744 and 8627. The basal medium used was MS and the media and experimental protocol were basically as described in Example 11. Fronds used in this experiment were grown for 2 weeks prior to plating on callus induction medium under 3 different culture conditions: 1) SH medium without plant growth regulators, 2) F medium with 24 μM 2,4-D and 2 μM 2-iP, and 3) SH medium with 24 μM 2,4-D and 2 μM 2-iP. Fronds were separated, the roots cut off and then plated on induction medium. The fronds were incubated under conditions given in Example 8 for 6 weeks at which time cultures were evaluated for the presence or absence of callus induction, the degree to which the callus proliferated, and the basic morphology of the callus.

[3] = system: Lemna gibba G3; test: GUS expression in fronds after co-cultivation with Agrobacterium tumefaciens AT656 (histochemical staining); assay type: cell-based
Experimental: Duckweed fronds were grown on liquid Schenk and Hildebrandt medium containing 1% sucrose with and without 10 μM indoleacetic acid (IAA), a concentration sufficient to increase proliferation rate. Fronds were grown in 25 ml aliquots of medium in 125 ml flasks, at 23° C. under a 16 hr light/8 hr dark photoperiod with light intensity of approximately 40 μmol/m^2·sec. For co-cultivation, 500 ml of Schenk and Hildebrandt medium containing 1% sucrose, 0.8% agar, 20 mg/L acetosyringone, and with and without 10 μM indoleacetic acid was prepared, pH adjusted to 5.6, autoclaved at 121° C. for 30 minutes, and cooled. Filter-sterilized solutions of acetosyringone, and acetosyringone and indoleacetic acid were added to the cooled medium, to the final, appropriate concentrations. Twenty, 100 mm×15 mm petri dishes were poured from the cooled medium.
A randomized block, experimental design with 2 bacterial strain treatments×2 frond growth media, with 5 replications, with one petri dish per replication, and 20 fronds per petri dish was used. For inoculation, bacteria of each strain were separately resuspended as described in Example 21. For inoculation, individual fronds were separated from clumps, each turned abaxial side up and wounded with a sterile scalpel in the meristematic regions, then transferred to bacterial suspensions of either AT656 or EHA101pJR1, and incubated for 10–15 minutes. For co-cultivation, fronds were transferred to solid Schenk and Hildebrandt medium with 1% sucrose, 0.8% agar and 100 μM acetosyringone with and without 10 μM indoleacetic acid as described above, abaxial side down.
The fronds were co-cultivated for 4 days at 23° C. under a 16 hr light/8 hr dark photoperiod with light intensity of approximately 40 μmol/m^2·sec. The fronds from two plates from each of the four treatments were stained for GUS expression.
Lemna gibba G3 fronds were grown for two weeks on liquid. Schenk and Hildebrandt medium containing 1% sucrose and with or without 10 μM indoleacetic acid in 25 ml aliquots in 125 ml flasks, at 23° C. under a 16 hr light/8 hr dark photoperiod with light intensity of approximately 40 μmol/m^2·sec prior to experimentation. For co-cultivation, 900 ml of Schenk and Hildebrandt medium containing 1% sucrose, 0.8% agar, with and without 10 μM indoleacetic acid, and 20 mg/L acetosyringone was prepared, the pH was adjusted to 5.6, the medium autoclaved at 121° C. for 30 minutes, and cooled. Filter-sterilized solutions of acetosyringone and indoleacetic acid were added to the appropriate, final medium concentrations. Thirty-six, 100 mm×15 mm petri dishes were poured from the cooled medium. Three bacterial media: 1) AB minimal containing 1.6% agar (AB), Difco potato dextrose medium with 1.6% agar (PDA), and mannitol glutamine (Roberts and Kerr, Physiol. […]

[4] = system: Lemna gibba G3; test: Callus induction from Lemna gibba G3 fronds on solid medium with plant growth regulators; assay type: cell-based
Experimental: Duckweed fronds were grown in liquid Hoagland's medium (Hoagland and Snyder, Proc. Amer. Soc. Hort. Sci. 30, 288 (1933)) containing 3% sucrose for two weeks at 23° C. under a 16 hr light/8 hr dark photoperiod with light intensity of approximately 40 μmol/m^2·sec prior to experimentation. For callus induction, eighteen, 100 ml portions of Murashige and Skoog basal medium (Murashige and Skoog, Physiol. Plant. 15, 473 (1962)) containing 3% sucrose, 0.15% Gelrite and 0.4% Difco Bacto-agar were prepared with 2,4-D concentrations of 10, 20 and 50 μM and BA concentrations of 0, 0.01, 0.1, 1.0, 2.0, and 10.0 μM. All media were pH adjusted to 5.8, autoclaved at 121° C. for 20 minutes, cooled, and each 100 ml was poured into 4, 100 mm×15 mm petri dishes.
(§1) A three 2,4-D concentrations×six BA concentrations, full-factorial experimental design (18 treatments in total) with four replications, with one petri dish per replication and 5 fronds per petri dish was used. For callus induction, 5 individual duckweed fronds were placed abaxial side down on each plate of medium. The 72 plates were incubated at 23° C., for 27 days under a 16 hr light/8 hr dark photoperiod with light intensity of approximately 40 μmol/m^2·sec. After 27 days the duckweed tissue was transferred to fresh media of the same type and incubation was continued another 35 days under the same temperature and light culturing conditions.
Duckweed fronds were grown in liquid Hoagland's medium containing 3% sucrose for two weeks at 23° C. under a 16 hr light/8 hr dark photoperiod with light intensity of approximately 40 μmol/m^2·sec. prior to experimentation. For callus induction, forty 100 ml portions of Murashige and Skoog medium with 3% sucrose, 0.15% Gelrite, and 0.4% Difco Bacto-agar were prepared with dicamba concentrations of 10, 20, 30, 40, 50, 60, 80, 100 μM and BA concentrations of 0.01, 0.05, 0.1, 0.5, and 1.0 μM. All media were pH adjusted to 5.8, autoclaved at 121° C. for 20 minutes, cooled, and each 100 ml was poured into 4, 100 mm×15 mm petri dishes.
as §1, with “An eight dicamba concentrations×five BA” for “A three 2,4-D concentrations×six BA”, “design (40” for “design (18”, “The” for “The 72”, “After 28” for “After 27”, “another 45” for “another 35”
Duckweed fronds were grown in liquid Schenk and Hildebrandt medium containing 1% sucrose for two weeks at 23° C. under a 16 hr light/8 hr dark photoperiod with light intensity of approximately 40 μmol/m^2·sec prior to experimentation. For callus induction, three basal media were tested: Murashige and Skoog, Schenk and Hildebrandt, and N6. Benzyladenine was used as the cytokinin at a concentration of 1 μM. The auxin concentrations varied with auxin type. For the relatively strong auxins, 2,4-D and dicamba, concentrations were 0, 1, 5, 10 and 20 μM. For weak auxins, NAA and IBA, the concentrations were 0, 5, 10, 20 and 50 μM. For each medium dose-response experiment, 2 liters of basal medium were prepared with BA and the pH adjusted to 5.8. The volume was aliquoted as 20, 100 ml portions. To each of these portions, the appropriate amount of auxin was added and the medium was adjusted to 0.15% Gelrite, and 0.4% Difco Bacto-agar. The media were autoclaved for 30 minutes at 121° C., cooled and 4, 100 mm×15 mm petri dishes were poured from each 100 ml portion.
A 3 media×4 auxin×5 concentration combinations, 60 treatment, randomized dose-response experimental design was used. The design was replicated two times, with one petri dish per replication and 5 fronds per petri dish.

[5] = half-strength SH with 10 μM BA only

Structure (SMILES): c1ccc(CNc2ncnc3nc[nH]c23)cc1 [BA, benzyladenine]
- callus growth compared with half-strength SH without plant growth regulators [1, 5]: callus growth was faster
- time to frond regeneration compared with half-strength SH [1, 5]: regeneration took longer
- callus induction ([2]; inducing auxin at 2, 5, 10, 20 μM, strains 8744 and 8627): not observed

Structure (SMILES): O=C(O)Cc1c[nH]c2ccccc12 [IAA, indoleacetic acid]
- effect on frequency of GUS expression after co-cultivation ([3]; fronds grown on 10 μM indoleacetic acid prior to inoculation, 4 days co-cultivation): increased the frequency of GUS expression
- frequency of GUS expression in meristematic tissue ([3]; fronds grown on SH medium with indoleacetic acid, averaged over PDA and MGL bacterial media): approximately 17%
- co-cultivated fronds showing GUS expression ([3]; medium containing 10 μM IAA, 4 days co-cultivation (20% without IAA)): 48%

Structure (SMILES): O=C(O)CCCc1c[nH]c2ccccc12 [IBA, indolebutyric acid]
- effect on the timing or ability of callus to regenerate fronds ([1]; 1 μM IBA added to medium with 10 μM BA): had no effect

Structure (SMILES): O=C(O)Cc1cccc2ccccc12 [NAA, naphthaleneacetic acid]
- concentration giving the greatest callus induction ([4]; MS medium, 1 μM BA, five weeks): 10 µM

Structure (SMILES): O=C(Nc1ccccc1)Nc1cnns1 [TDZ, thidiazuron]
- frequency of callus induction ([4]; cytokinin 0-5 μM with 20 μM 2,4-D, MS medium, five weeks): greatest frequency of callus induction

Structure (SMILES): COc1c(Cl)ccc(Cl)c1C(=O)O [dicamba]
- compact Type I callus induction on MS medium ([4]; auxin with 1 μM BA, five weeks): some degree of callus induction
- compact Type I callus induction on N6 medium ([4]; auxin with 1 μM BA, five weeks): produced callus
- callus proliferation ([4]; dicamba 10-100 μM with BA 0.01-1.0 μM, Murashige and Skoog medium, 73 days): callus proliferation was poor
- concentration above which callus proliferation did not occur ([4]; dicamba with BA 0.01-1.0 μM, Murashige and Skoog medium, 73 days): above 30 μM
- concentration at which callus induction was observed ([2]; strain 8744, auxin experiment): 20 µM

Structure (SMILES): OC[C@@H](O)[C@@H](O)[C@H](O)[C@H](O)CO [mannitol]
- concentration in bacterial resuspension solution giving the highest frequencies of GUS expression ([3]; 0, 0.2, 0.4, 0.6, 0.8 M tested, regardless of media, 4 days co-cultivation in the dark): 0.6 M
